Measured values taken from article PMC8536124 (International Journal of Molecular Sciences, 2021).

What was measured:
K-562 = assay: NCI-60 screening (SRB); assay type: cell-based, human; conditions: for GI50 / CC50: Homo sapiens, K562, five-dose; for CC50: read-out: LC50 (the source's name); for TGI: five-dose
MOLT-4 = assay: NCI-60 screening (SRB); assay type: cell-based, human; conditions: five-dose; for GI50 / CC50: Homo sapiens; for CC50: read-out: LC50 (the source's name)
Breast cancer = assay: NCI-60 screening (SRB), subpanel; assay type: cell-based; conditions: for TGI MG_MID / GI50 / CC50: Breast cancer subpanel, five-dose; for SI (TGI): Breast cancer, MG_MID60/subpanel MG_MID; for GI50 / CC50: Homo sapiens; for GI50: read-out: GI50 MG_MID; for CC50: read-out: LC50 MG_MID
From the text: (§1) The experimental data allow the assessment of the cytostatic effect, indicated by growth inhibition values ranging between 0 and 100, as well as of the cytotoxic effect, indicated by negative values.
(§2) The mean GI50 (molar concentration of the compound that inhibits 50% net cell growth), TGI (molar concentration of the compound leading to the total inhibition), and LC50 (molar concentration of the compound leading to 50% net cell death (presented in negative logarithm)) values across each cell line are shown in Table 2.
(§3) The selectivity index (SI), calculated as the ratio between the full panel MG_MID60 (μM) of compounds 4, 6, and 9 by their respective subpanels MG_MID of the cell line (μM), was introduced as a quantification tool for the selectivity of each compound in terms of anticancer effect (Table 3).
(§4) Primary anticancer assays were performed according to the NCI protocol, as described elsewhere (see e.g., http://dtp.nci.nih.gov accessed on 1 November 2018). The compounds were added at a single concentration, and the cell cultures were incubated for 48 h. The end point determinations were made with a protein-binding dye, sulforhodamine B (SRB). […] The percentage of growth was evaluated spectrophotometrically versus controls not treated with test agents after 48 h exposure and using SRB protein assay to estimate cell viability or growth. Three antitumor activity dose-response parameters were calculated for each cell line. Furthermore, mean graph midpoints (MG_MID) were calculated for each of the parameters, giving an average activity parameter over all cell lines for the tested compound. For the MG_MID calculation, insensitive cell lines were included with the highest concentration tested.

Colon Cancer = assay: NCI-60 screening (SRB), subpanel; assay type: cell-based; conditions: for TGI MG_MID / GI50 / CC50: Colon Cancer subpanel, five-dose; for SI (TGI): Colon Cancer, MG_MID60/subpanel MG_MID; for GI50 / CC50: Homo sapiens; for GI50: read-out: GI50 MG_MID; for CC50: read-out: LC50 MG_MID
From the text: as §1, §2, §3, §4

Leukemia = assay: NCI-60 screening (SRB), subpanel; assay type: cell-based; conditions: for SI (TGI): Leukemia, MG_MID60/subpanel MG_MID; for CC50: Homo sapiens, read-out: LC50 MG_MID; for CC50 / TGI MG_MID: Leukemia subpanel, five-dose
From the text: as §1, §2, §3, §4

Melanoma = assay: NCI-60 screening (SRB), subpanel; assay type: cell-based; conditions: for GI50 / CC50: Homo sapiens; for GI50 / CC50 / TGI MG_MID: Melanoma subpanel, five-dose; for GI50: read-out: GI50 MG_MID; for CC50: read-out: LC50 MG_MID; for SI (TGI): Melanoma, MG_MID60/subpanel MG_MID
From the text: as §1, §2, §3, §4

NSC lung cancer = assay: NCI-60 screening (SRB), subpanel; assay type: cell-based; conditions: for GI50 / CC50: Homo sapiens; for GI50 / CC50 / TGI MG_MID: NSC lung cancer subpanel, five-dose; for GI50: read-out: GI50 MG_MID; for CC50: read-out: LC50 MG_MID; for SI (TGI): NSCL cancer, MG_MID60/subpanel MG_MID
From the text: as §1, §2, §3, §4

Ovarian cancer = assay: NCI-60 screening (SRB), subpanel; assay type: cell-based; conditions: for GI50 / CC50: Homo sapiens; for GI50 / CC50 / TGI MG_MID: Ovarian cancer subpanel, five-dose; for GI50: read-out: GI50 MG_MID; for CC50: read-out: LC50 MG_MID; for SI (TGI): Ovarian Cancer, MG_MID60/subpanel MG_MID
From the text: as §1, §2, §3, §4

Prostate cancer = assay: NCI-60 screening (SRB), subpanel; assay type: cell-based; conditions: for GI50 / CC50: Homo sapiens; for GI50 / CC50 / TGI MG_MID: Prostate cancer subpanel, five-dose; for GI50: read-out: GI50 MG_MID; for CC50: read-out: LC50 MG_MID; for SI (TGI): Prostate cancer, MG_MID60/subpanel MG_MID
From the text: as §1, §2, §3, §4

Renal Cancer = assay: NCI-60 screening (SRB), subpanel; assay type: cell-based; conditions: for GI50 / LC50 (50% net cell kill): Homo sapiens; for GI50 / LC50 (50% net cell kill) / TGI MG_MID: Renal cancer subpanel, five-dose; for GI50: read-out: GI50 MG_MID; for LC50 (50% net cell kill): read-out: LC50 MG_MID; for SI (TGI): Renal Cancer, MG_MID60/subpanel MG_MID
From the text: as §1, §2, §3, §4

KM12 = assay: NCI-60 screening (SRB); assay type: cell-based, human; conditions: five-dose; for GI50 / CC50: Homo sapiens; for CC50: read-out: LC50 (the source's name)
SW-620 = assay: NCI-60 screening (SRB); assay type: cell-based, human; conditions: five-dose; for GI50 / CC50: Homo sapiens; for CC50: read-out: LC50 (the source's name)
OVCAR-4 = assay: NCI-60 screening (SRB); assay type: cell-based, human; conditions: five-dose; for GI50 / CC50: Homo sapiens; for CC50: read-out: LC50 (the source's name)
RPMI cells = assay: DAPI staining, nuclear morphology; assay type: cell-based, human; conditions: 24 h
Method: (§5) The cells were cultured in 24-well plates at 2 × 10^5 cells/well. Two samples (compounds 4 and 6) of three different concentrations (0.1, 1, and 5 μM) and three concentrations of DMSO (0.1, 1, 5 μM) were used to stimulate the cells. The immunofluorescent staining technique was performed according to the protocol in [92]. Thus, after 24 h of stimulation, the cells were fixed by adding 4% paraformaldehyde and incubating at room temperature for one hour. After fixation, cell permeability was performed with 2% Triton X solution in phosphate-buffered saline (PBS). After 30 min of incubation at room temperature, blocking of permeabilization was performed with 0.01% Triton X solution and incubation at RT for one hour. DAPI staining was used in a concentration of 300 nM to visualize the nuclei. The cells were analyzed by fluorescence microscope at 40× magnification using CellSens V1.15 software (Olympus, Tokyo, Japan) and Image J software.

SK-MEL-28 cells = assay: DAPI staining, nuclear morphology; assay type: cell-based, human; conditions: SK-MEL28, 24 h
Method: as §5

A375 cells = assay: Cell morphology and confluence; assay type: cell-based, human; conditions: 24 h
Method: A morphological examination of the tested cells was conducted in order to provide additional data for the investigated compounds in terms of their biological activity.

## CCN1CCN(C(=O)[C@]23CC[C@@H](C)[C@H](C)[C@H]2C2=CC[C@@H]4[C@@]5(C)CCC(=O)C(C)(C)[C@@H]5CC[C@@]4(C)[C@]2(C)CC3)CC1 [Compound 4, N-(3-oxo-ursan-12-en-28-oyl)-ethylpiperazine]
K-562
  GI50: 0.98 µM
  CC50: 4.84 µM
  TGI: 2.18 µM
MOLT-4
  GI50: 0.994 µM
  CC50: > 50 µM
  TGI: 2.90 µM
Breast cancer
  TGI MG_MID: 2.33 µM
  SI (TGI): 1.17
  GI50: 0.97 µM
  CC50: 16.1 µM
Colon Cancer
  TGI MG_MID: 2.03 µM
  SI (TGI): 1.35
  GI50: 0.94 µM
  CC50: 5.92 µM
Leukemia
  SI (TGI): 1.12
Melanoma
  GI50: 0.93 µM
  CC50: 4.94 µM
  TGI MG_MID: 1.93 µM
  SI (TGI): 1.42
NSC lung cancer
  GI50: 1.18 µM
  CC50: 17 µM
  TGI MG_MID: 3.60 µM
  SI (TGI): 0.76
Ovarian cancer
  GI50: 1.19 µM
  CC50: 16.2 µM
  SI (TGI): 0.77
  TGI MG_MID: 3.55 µM
Prostate cancer
  GI50: 1.27 µM
  CC50: 18.4 µM
  TGI MG_MID: 4.40 µM
  SI (TGI): 0.62
Renal Cancer
  GI50: 0.95 µM
  LC50 (50% net cell kill): 8.38 µM
  SI (TGI): 1.08
  TGI MG_MID: 2.53 µM
KM12
  GI50: 1.03 µM
  CC50: 4.79 µM
  TGI: 2.22 µM
SW-620
  GI50: 0.902 µM
  CC50: 3.44 µM
  TGI: 1.76 µM
OVCAR-4
  GI50: 1.26 µM
  CC50: 18 µM
  TGI: 4.74 µM
RPMI cells; 0.1 µM
  nuclear morphology (DAPI): massive chromatin condensation
RPMI cells; 1 µM
  nuclear morphology (DAPI): visible nuclear fragmentation
RPMI cells; 5 µM (highest concentration)
  nuclear morphology (DAPI): blebbing of the nuclear membrane
SK-MEL-28 cells; 0.1 μM
  nuclear morphology (DAPI): intense condensation of the cell nuclei
SK-MEL-28 cells; 1 μM
  nuclear morphology (DAPI): chromatin condensation is accompanied by the formation of apoptotic bodies
SK-MEL-28 cells; 5 μM
  nuclear morphology (DAPI): incipient nuclear fragmentation
A375 cells; 0.1 μM
  cell morphology and confluence: caused cell death
A375 cells; 1 and 5 μM
  cell morphology and confluence: visible loss of cell confluence

## CCN1CCN(C(=O)[C@]23CCC(C)(C)C[C@H]2C2=CC[C@@H]4[C@@]5(C)C/C(=C/c6cccnc6)C(=O)C(C)(C)[C@@H]5CC[C@@]4(C)[C@]2(C)CC3)CC1 [Compound 6]
K-562
  GI50: 0.443 µM
  CC50: > 100 µM
  TGI: 3.34 µM
MOLT-4
  GI50: 1.43 µM
  CC50: > 100 µM
  TGI: >100 µM
Breast cancer
  TGI MG_MID: 5.30 µM
  SI (TGI): 1.17
  GI50: 1.67 µM
  CC50: 39.6 µM
Colon Cancer
  TGI MG_MID: 3.51 µM
  SI (TGI): 1.99
  GI50: 1.52 µM
  CC50: 25.4 µM
Leukemia
  CC50: > 100 µM
  TGI MG_MID: 5.10 µM
  SI (TGI): 0.30
Melanoma
  GI50: 1.54 µM
  CC50: 9.2 µM
  TGI MG_MID: 3.21 µM
  SI (TGI): 1.96
NSC lung cancer
  GI50: 1.91 µM
  CC50: 29.7 µM
  TGI MG_MID: 5.83 µM
  SI (TGI): 1.08
Ovarian cancer
  GI50: 2.15 µM
  CC50: 36.2 µM
  SI (TGI): 1.52
  TGI MG_MID: 4.14 µM
Prostate cancer
  GI50: 1.42 µM
  CC50: 8.01 µM
  TGI MG_MID: 3.34 µM
  SI (TGI): 1.89
Renal Cancer
  GI50: 1.97 µM
  LC50 (50% net cell kill): 20.2 µM
  SI (TGI): 0.96
  TGI MG_MID: 6.54 µM
KM12
  GI50: 1.58 µM
  CC50: 6.75 µM
  TGI: 3.26 µM
SW-620
  GI50: 1.78 µM
  CC50: 8.46 µM
  TGI: 3.88 µM
OVCAR-4
  GI50: 2.17 µM
  CC50: 47.8 µM
  TGI: 7.85 µM
RPMI cells; 0.1 µM
  nuclear morphology (DAPI): nuclear fragmentation
RPMI cells; 1 µM
  nuclear morphology (DAPI): chromatin condensation
RPMI cells; 5 µM (highest concentration)
  nuclear morphology (DAPI): apoptotic bodies
SK-MEL-28 cells; 0.1, 1, 5 μM
  nuclear morphology (DAPI): dose-dependent effect was recorded in terms of membrane blebbing, nuclear condensation, and fragmentation
A375 cells; all concentrations (0.1, 1, 5 μM)
  cell morphology and confluence: noticeable decrease in cell confluence

## CCN1CCN(C(=O)[C@]23CC[C@@H](C)[C@H](C)[C@H]2C2=CC[C@@H]4[C@@]5(C)C/C(=C/c6cccnc6)C(=O)C(C)(C)[C@@H]5CC[C@@]4(C)[C@]2(C)CC3)CC1 [Compound 9, N-(2-{3-Pyridinylidene}-3-oxoursan-12-en-28-oyl)-ethylpiperazine]
K-562
  GI50: 2.08 µM
  CC50: > 100 µM
  TGI: 5.00 µM
MOLT-4
  GI50: 2.63 µM
  CC50: > 100 µM
  TGI: 7.44 µM
Breast cancer
  TGI MG_MID: 5.37 µM
  SI (TGI): 0.98
  GI50: 1.91 µM
  CC50: 36.9 µM
Colon Cancer
  TGI MG_MID: 4.00 µM
  SI (TGI): 1.32
  GI50: 1.81 µM
  CC50: 33.7 µM
Leukemia
  CC50: > 100 µM
  TGI MG_MID: 7.09 µM
  SI (TGI): 0.75
Melanoma
  GI50: 1.56 µM
  CC50: 25.1 µM
  TGI MG_MID: 3.66 µM
  SI (TGI): 1.45
NSC lung cancer
  GI50: 2.12 µM
  CC50: 47.1 µM
  TGI MG_MID: 6.81 µM
  SI (TGI): 0.78
Ovarian cancer
  GI50: 2.04 µM
  CC50: 36.2 µM
  SI (TGI): 1.02
  TGI MG_MID: 5.16 µM
Prostate cancer
  GI50: 1.79 µM
  CC50: 9.23 µM
  SI (TGI): 0.89
Renal Cancer
  GI50: 1.97 µM
  LC50 (50% net cell kill): 21.3 µM
  SI (TGI): 0.95
  TGI MG_MID: 5.57 µM
KM12
  GI50: 1.75 µM
  CC50: 7.23 µM
  TGI: 3.56 µM
SW-620
  GI50: 1.9 µM
  CC50: 9.05 µM
  TGI: 4.14 µM
OVCAR-4
  GI50: 2.57 µM
  CC50: 36.6 µM
  TGI: 7.36 µM
